Experimental data from patent US9487504B2, “Imidazolyl analogs as syk inhibitors” (Merck Sharp & Dohme Corp., priority 2012, dated 2016).

Each molecule was assayed against T1, recombinant human GST-Syk (Homo sapiens, UniProt P43405) (assay: Homogeneous Time-Resolved Fluorescence (HTRF) assay for the recombinant human Syk enzyme). Conditions: ATP 25 μM, 10-dose titration, read-out: rhSYK Activity.
T1 construct: purchased Carna Biosciences 08-176
Assay type: biochemical
Protocol: Syk inhibition may be determined using the following assay protocol:
Homogeneous Time-Resolved Fluorescence (HTRF) Assay for the Recombinant Human Syk Enzyme:
A recombinant GST-hSyk fusion protein was used to measure potency of compounds to inhibit human Syk activity. The recombinant human GST-Syk (Carna Biosciences #08-176) ([…]) was incubated with various concentrations of the inhibitor diluted in DMSO (0.1% final concentration) for 10 minutes at room temperature in 15 mM Tris-HCl (pH 7.5), 0.01% tween 20, 2 mM DTT in 384 well plate format. To initiate the reaction the biotinylated substrate peptide (250 nM final concentration) that contains the phosphorylation site for Syk was added with magnesium (5 mM final concentration) and ATP (25 μM final concentration). Final volume of the reaction was 10 μL. Phosphorylation of the peptide was allowed to proceed for 45 minutes at room temperature. To quench the reaction and detect the phosphorylated product, 2 nM of a Europium-anti-phosphotyrosine antibody (Perkin Elmer #AD0161) and 70 nM SA-APC (Perkin-Elmer #CR130-100) were added together in 15 mM Tris pH 7.5, 40 mM EDTA, 0.01% tween 20. Final volume of the quenching solution was 10 μL. The resulting HTRF signal was measured after 30 minutes on an EnVision (Perkin-Elmer) reader using a time-resolved fluorescence protocol. IC50 was determined following 10-dose titration (10 μM to 0.508 nM) and four parameter logistic curve fitting using the Merck Assay Data Analyzer. The rhSyk activity (IC50) is expressed as +++ (100 nM or less), ++ (between 100 and 1000 nM), + (between 1 and 10 μM).

Compound	IC50
Cc1cc(Nc2nccc(C(F)(F)F)n2)cc(-n2cnc([C@]3(O)CC[C@@H](C(=O)N4CCOCC4)CC3)c2)c1 [Example 30, cis-1-[1-(3-methyl-5-{[4-(trifluoromethyl)pyrimidin-2-yl]amino}phenyl)-1H-imidazol-4-yl]-4-(morpholin-4-ylcarbonyl)cyclohexanol]	≤ 100 nM
Cc1cc(Nc2nccc(C(F)(F)F)n2)cc(-n2cnc(C3(O)CCC(C(=O)N4CCCC4)CC3)c2)c1 (stereo not drawn) [Example 31, cis-1-[1-(3-methyl-5-{[4-(trifluoromethyl)pyrimidin-2-yl]amino}phenyl)-1H-imidazol-4-yl]-4-(pyrrolidin-1-ylcarbonyl)cyclohexanol]	≤ 100 nM
Cc1cc(Nc2nccc(C(F)(F)F)n2)cc(-n2cnc([C@]3(O)CC[C@@H](C(=O)N(C)C)CC3)c2)c1 [Example 32, cis-4-hydroxy-N,N-dimethyl-4-[1-(3-methyl-5-{[4-(trifluoromethyl)-pyrimidin-2-yl]amino}-phenyl)-1H-imidazol-4-yl]cyclohexane-carboxamide]	≤ 100 nM
Cc1cc(Nc2nccc(C(F)(F)F)n2)cc(-n2cnc([C@]3(O)CC[C@H](C(N)=O)CC3)c2)c1 [Example 33, trans-4-hydroxy-4-[1-(3-methyl-5-{[4-(trifluoro-methyl)pyrimidin-2-yl]amino}phenyl)-1H-imidazol-4-yl]-cyclohexanecarboxamide]	≤ 100 nM
Cc1cc(Nc2nccc(C(F)(F)F)n2)cc(-n2cnc([C@]3(O)CC[C@@H](C(N)=O)CC3)c2)c1 [Example 34, cis-4-hydroxy-4-[1-(3-methyl-5-{[4-(trifluoromethyl)-pyrimidin-2-yl]amino}phenyl)-1H-imidazol-4-yl]-cyclohexanecarboxamide]	≤ 100 nM
Cc1cc(Nc2nccc(C(F)(F)F)n2)cc(-n2cnc(C3(O)CCC(C(=O)O)CC3)c2)c1 (stereo not drawn) [Example 35, trans-4-hydroxy-4-[1-(3-methyl-5-[[4-(trifluoromethyl)pyrimidin-2-yl]amino}phenyl)-1H-imidazol-4-yl]cyclohexanecarboxylic acid]	≤ 100 nM
CCOC(=O)C1CCC(O)(c2cn(-c3cc(C)cc(Nc4nccc(C(F)(F)F)n4)c3)cn2)CC1 (stereo not drawn) [Example 36, Ethyl trans-4-hydroxy-4-[1-(3-methyl-5-{[4-(trifluoromethyl)pyrimidin-2-yl]amino}phenyl)-1H-imidazol-4-yl]-cyclohexanecarboxylate]	≤ 100 nM
Cc1cc(Nc2nccc(C(F)(F)F)n2)cc(-n2cnc([C@]3(O)CC[C@@H](O)CC3)c2)c1 [Example 37, Cis-1-[1-(3-methyl-5-{[4-(trifluoromethyl)pyrimidin-2-yl]amino}phenyl)-1H-imidazol-4-yl]cyclohexane-1,4-diol]	≤ 100 nM
Cc1cc(Nc2nccc(C)n2)cc(-n2cnc([C@]3(O)CC[C@@H](O)CC3)c2)c1 [Example 38, Cis-1-(1-{3-methyl-5-[(4-methylpyrimidin-2-yl)amino]phenyl}-1H-imidazol-4-yl)cyclohexane-1,4-diol]	≤ 100 nM
COc1ccnc(Nc2cc(C)cc(-n3cnc([C@]4(O)CC[C@@H](O)CC4)c3)c2)n1 [Example 39, cis-1-(1-{3-[(4-methoxypyrimidin-2-yl)amino]-5-methylphenyl}-1H-imidazol-4-yl)cyclohexane-1,4-diol]	≤ 100 nM
Cc1cc(Nc2nccc(C3CC3)n2)cc(-n2cnc([C@]3(O)CC[C@@H](O)CC3)c2)c1 [Example 40, cis-1-(1-{3-[(4-cyclopropylpyrimidin-2-yl)amino]-5-methylphenyl}-1H-imidazol-4-yl)cyclohexane-1,4-diol]	≤ 100 nM
COc1ccnc(Nc2cc(C)cc(-n3cnc(C4(O)CCC(OC(=O)c5ccccc5)CC4)c3)c2)n1 (stereo not drawn) [Example 41, cis-4-hydroxy-4-(1-{3-[(4-methoxypyrimidin-2-yl)amino]-5-methylphenyl}-1H-imidazol-4-yl)cyclohexyl benzoate]	≤ 100 nM

Same assay, conditions: ATP 25 μM, 10-dose titration, read-out: rhSYK IC50

Compound	IC50
Cc1cc(Nc2nccc(C(F)(F)F)n2)cc(-n2cnc([C@]3(O)CC[C@@H](O)CC3)c2)c1 [Example 37, Cis-1-[1-(3-methyl-5-{[4-(trifluoromethyl)pyrimidin-2-yl]amino}phenyl)-1H-imidazol-4-yl]cyclohexane-1,4-diol]	3.7 nM
